Among the test systems are SK-MEL-5 melanoma; UACC-257 melanoma; HT29 colon; CAKI-1 renal; MDA-N; HL-60(TB) leukemia; NCI-H522 lung; EKVX NSCLC; SNB-19 CNS; DU-145 prostate; ACHN renal; LOX IMVI melanoma; OVCAR-3 ovarian; M14 melanoma; MDA-MB-435.
What all share (experiment): inhibition of tumour cell growth, NCI panel, 48 h

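Step 1: Grow cells in 96-well plates. Step 2: Expose to compound for 48 hours at 5 concentrations. Step 3: Interpolate endpoints linearly; if unreached, use highest concentration. Here, GI50 denotes the concentration required for 50% inhibition of growth. The concentration for full growth arrest is given as TGI.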

As to `Cc1cc(S(=O)(=O)Nc2cc(N)[nH]n2)c(SCc2nc(N)nc(N(C)C)n2)cc1Cl`, the TGI with SK-MEL-5 melanoma, in the assay with UACC-257 melanoma, in the assay on HT29 colon, in the assay with CAKI-1 renal, in the assay on MDA-N and in the assay on HL-60(TB) leukemia was greater than 10 µM each time. The TGI with NCI-H522 lung, in the assay with EKVX NSCLC, with SNB-19 CNS, in the assay on DU-145 prostate, in the assay on ACHN renal and in the assay with LOX IMVI melanoma was greater than 10 µM in each case. For the same compound, the TGI with OVCAR-3 ovarian and in the assay with M14 melanoma was greater than 10 µM throughout.
In the case of `O=S(=O)(O)c1ccc(N=Nc2c(O)ccc3cc(Br)ccc23)cc1`, the TGI in the assay with SK-MEL-5 melanoma, with UACC-257 melanoma, with HT29 colon, in the assay on CAKI-1 renal, in the assay with MDA-N and in the assay with NCI-H522 lung was greater than 100 µM in each case. The TGI in the assay with EKVX NSCLC, with SNB-19 CNS, with MDA-MB-435, in the assay on DU-145 prostate, with ACHN renal and with LOX IMVI melanoma was greater than 100 µM in each case. In addition, the TGI in the assay with OVCAR-3 ovarian and in the assay with M14 melanoma was greater than 100 µM each time.
With `c1ccc(CNCCCCNCCCNCc2ccccc2)cc1`, the TGI in the assay with SK-MEL-5 melanoma amounted to 32.5 µM; with UACC-257 melanoma, 32 µM; in the assay with HT29 colon it was 31 µM; with CAKI-1 renal it was 40.3 µM; in the assay on MDA-N, 26.3 µM; in the assay with NCI-H522 lung, 31 µM. For the same compound, the TGI in the assay with EKVX NSCLC was determined as 57.3 µM; with SNB-19 CNS it was 32.7 µM; in the assay with MDA-MB-435 it was 34.7 µM; with DU-145 prostate, 49.3 µM; in the assay with ACHN renal, 29.3 µM; with LOX IMVI melanoma, 32.7 µM. Further, the TGI with OVCAR-3 ovarian is 54.7 µM; in the assay on M14 melanoma, 86.5 µM.
In the case of `COC1=CCC=C(C[C@@H]2NCCc3cc(OC)c(OC)cc32)C1`, the TGI with SK-MEL-5 melanoma, with UACC-257 melanoma, in the assay on HT29 colon, in the assay with CAKI-1 renal, in the assay on HL-60(TB) leukemia and with NCI-H522 lung was greater than 100 µM in each case. Also, the TGI in the assay on EKVX NSCLC, in the assay with SNB-19 CNS, in the assay with ACHN renal, with LOX IMVI melanoma, with OVCAR-3 ovarian and with M14 melanoma was greater than 100 µM throughout.
As to `CNC(=O)SCC(N)C(=O)O` (stereo not drawn), the TGI in the assay with SK-MEL-5 melanoma, in the assay with UACC-257 melanoma, in the assay on HT29 colon, in the assay on CAKI-1 renal, with HL-60(TB) leukemia and with NCI-H522 lung was greater than 100 µM throughout. Further, the TGI in the assay on EKVX NSCLC is greater than 100 µM; in the assay on SNB-19 CNS it was greater than 100 µM; in the assay on LOX IMVI melanoma, greater than 89.3 µM; in the assay on OVCAR-3 ovarian, greater than 100 µM.
As to `c1ccc([P+](Cc2ccccc2C[P+](c2ccccc2)(c2ccccc2)c2ccccc2)(c2ccccc2)c2ccccc2)cc1`, the TGI in the assay with SK-MEL-5 melanoma, in the assay on UACC-257 melanoma, in the assay on HT29 colon, in the assay with CAKI-1 renal, with MDA-N and in the assay on HL-60(TB) leukemia was greater than 100 µM throughout. Also, the TGI in the assay on NCI-H522 lung, with SNB-19 CNS, in the assay on MDA-MB-435, in the assay with DU-145 prostate, in the assay with ACHN renal and with LOX IMVI melanoma was greater than 100 µM each time. Besides, the TGI in the assay on OVCAR-3 ovarian and in the assay on M14 melanoma was greater than 100 µM throughout.
For the compound `[O-][n+]1ccccc1S`, the TGI was 30.9 µM in the assay on SK-MEL-5 melanoma; 64.4 µM in the assay on UACC-257 melanoma; 2.32 µM in the assay with HT29 colon; 8.09 µM in the assay with CAKI-1 renal; 5.14 µM in the assay on NCI-H522 lung; greater than 100 µM in the assay on EKVX NSCLC. Moreover, the TGI with SNB-19 CNS is greater than 100 µM; with MDA-MB-435, greater than 100 µM; in the assay on DU-145 prostate, 46.8 µM; in the assay on ACHN renal, greater than 100 µM; in the assay with LOX IMVI melanoma, greater than 100 µM; in the assay on OVCAR-3 ovarian, 2.78 µM. The compound also displayed a TGI in the assay with M14 melanoma greater than 100 µM. Also, the GI50 is 3.17 µM in the assay on MDA-MB-435 and 3.48 µM in the assay with DU-145 prostate.
`CC(=O)Nc1ccc2[nH]c(-c3cccc(Cl)c3)cc(=O)c2c1`: the TGI was greater than 100 µM in the assay with SK-MEL-5 melanoma; greater than 100 µM in the assay on UACC-257 melanoma; 33.7 µM with HT29 colon; greater than 100 µM in the assay on HL-60(TB) leukemia; greater than 100 µM in the assay with NCI-H522 lung; greater than 100 µM with EKVX NSCLC. Also, the TGI with SNB-19 CNS was greater than 100 µM; with MDA-MB-435, 6.93 µM; with ACHN renal it was greater than 100 µM; in the assay with M14 melanoma, greater than 100 µM.
With `CCOC(=O)c1c(Cl)nc2ccccc2c1N=[N+]=[N-]`, the TGI in the assay with SK-MEL-5 melanoma was greater than 100 µM; with UACC-257 melanoma, 53.4 µM; with HT29 colon, 34.2 µM; with CAKI-1 renal, 43.4 µM; in the assay with MDA-N, 44.2 µM; in the assay on HL-60(TB) leukemia, greater than 100 µM. In addition, the TGI with NCI-H522 lung was 31.4 µM; in the assay on EKVX NSCLC, greater than 100 µM; with SNB-19 CNS, greater than 100 µM; with MDA-MB-435, 47.1 µM; in the assay with ACHN renal it was greater than 100 µM; in the assay with LOX IMVI melanoma, 39.3 µM. Besides, the TGI in the assay on OVCAR-3 ovarian amounted to 39.7 µM; in the assay with M14 melanoma, 34.1 µM.
For the compound `C/C=C/C1=CC(=O)C(O)C1O` (stereo not drawn), the TGI in the assay with SK-MEL-5 melanoma is 79.8 µM; with UACC-257 melanoma, 97.4 µM; in the assay on HT29 colon, 102 µM; with CAKI-1 renal, 43.7 µM; in the assay with HL-60(TB) leukemia, 57.5 µM; with NCI-H522 lung, 15.5 µM. In addition, the TGI in the assay with EKVX NSCLC was determined as 148 µM; in the assay on SNB-19 CNS it was 124 µM; with LOX IMVI melanoma it was 83 µM; in the assay with OVCAR-3 ovarian, 67.7 µM.
For `CCOC(=O)[C@@]12C3C=CC(CC3)[C@]1(C(=O)c1ccccc1)C(=O)C(=O)N2c1ccccc1` (stereo partly drawn), the TGI with SK-MEL-5 melanoma, in the assay with HT29 colon, in the assay with CAKI-1 renal, with MDA-N, with NCI-H522 lung and with SNB-19 CNS was greater than 100 µM each time. In addition, the TGI in the assay with MDA-MB-435, in the assay on DU-145 prostate, in the assay with ACHN renal, in the assay with OVCAR-3 ovarian and with M14 melanoma was greater than 100 µM each time.
